Experimental data reported in US11292811B2, “Long-acting prodrugs of entecavir, preparing methods and uses thereof” (priority 2017, dated 2022).

What was measured:
[1] = Pharmacokinetic test in the body of beagle (blood concentration of Entecavir after i.m. injection of prodrug suspension); assay type: in vivo
Description: Three conventional male beagles were used in the test, and they were forbidden to eat for 12 hours before administering drugs, and drank water freely meanwhile. Entecavir-5′-docosanoate (prepared in Example 4), Entecavir-5′-ursodesoxycholate (prepared in Example 5) and entecavir-5′-stearoylamidobutanoate (prepared in Example 19) were used to prepare a suspension, and were intramuscularly injected in a dosage of 0.508 mg/kg, 0.552 mg/kg, and 0.533 mg/kg respectively.
Treatment of blood plasma sample: 100 μL of blood plasma sample was added to 20 μL of methanol-water (V:V, 1:1) and 20 μL of interior label (2 μg/mL apigenin), and mixed through vortex. 200 μL of methanol was added and mixed through vortex, followed by being centrifuged under a centrifugal force of 14,000 g for 30 minutes. 10 μL of supernate was collected for analysis. The results are shown in Table 1, Table 2, and Table 3, as well as FIG. 1, FIG. 2 and FIG. 3.

[2] = cited from earlier work

Compound: C=C1[C@H](COC(=O)CCCNC(=O)CCCCCCCCCCCCCCCCC)[C@@H](O)C[C@@H]1n1cnc2c(=O)[nH]c(N)nc21 [Entecavir-5′-stearoylamidobutanoate]
- Release of injectable suspension after intramuscular injection ([1]; dog, in vivo): released sustainably and steady

Compound: C=C1[C@H](COC(=O)CC[C@@H](C)[C@H]2CC[C@H]3[C@@H]4[C@@H](O)C[C@@H]5C[C@H](O)CC[C@]5(C)[C@H]4CC[C@]23C)[C@@H](O)C[C@@H]1n1cnc2c(=O)[nH]c(N)nc21 [Entecavir-5′-ursodesoxycholate]
- Release of injectable suspension after intramuscular injection ([1]; beagle, intramuscularly injected suspension): released sustainably and steady

Compound: C=C1[C@H](CO)[C@@H](O)C[C@@H]1n1cnc2c(=O)[nH]c(N)nc21 [Entecavir]
- Cmax decrease when administered with food [2]: 44-46%
- Decrease of area under the curve (AUC) of the drug-time curve when administered with food [2]: 18-20%

Compound: Entecavir-5′-docosanoate
- Release of injectable suspension after intramuscular injection ([1]; dog, in vivo): released sustainably and steady
